# Measurements: patent US20230364032A1, “USE OF 2-HOBA TO TREAT ATHEROSCLEROSIS” (Vanderbilt University, priority 2020, published 2023)
# “Also recorded” adds a separate entry of the source.
# How the values were obtained:
# MDA = test: MDA-HOBA (propenal-HOBA) adducts in urine and tissues after oral gavage (LC-MS/MS); assay type: in vivo, mouse
# Procedure: Urine samples were collected for 16 h after oral gavage of male Ldlr^−/− mice on a WD with either 2-HOBA or 4-HOBA. After 16 h, the Ldlr^−/− mice were sacrificed and the HOBA-propenal adducts in urine (14A), liver (14B), kidney (14C) and spleen (14D) were measured using LC-MS/MS as described in methods (14A-D) (Mann-Whitney test, ** indicates p<0.01 and *** indicates p<0.001).
# Ldlr^−/− and WT on C57BL/6 background mice were obtained from the Jackson Laboratory. Animal protocols were performed according to the regulations of Vanderbilt University's Institutional Animal Care and Usage Committee. Mice were maintained on chow or a Western-type diet containing 21% milk fat and 0.15% cholesterol (Teklad). Eight week old, female Ldlr^−/− mice on a chow diet were pretreated with vehicle alone (Water) or containing either 1 g/L of 4-HOBA or 1 g/L of 2-HOBA. 4-HOBA (as hydrochloride salt) was synthesized as previously described^21. 2-HOBA (as the acetate salt, CAS 1206675-01-5) was manufactured by TSI Co., Ltd. (Missoula, MT) and obtained from Metabolic Technologies, Inc., Ames, IA^24. A commercial production lot was used (Lot 16120312), and the purity of the commercial lot was verified to be >99% via HPLC and NMR spectroscopy^24. After two weeks, the mice continued to receive these treatments but were switched to a western diet for 16 weeks to induce hypercholesterolemia and atherosclerosis. Similarly, 12 week-old male Ldlr^−/− mice were pretreated with vehicle alone (water) or containing 1 g/L of 2-HOBA for two weeks and were then switched to a western diet for 16 weeks to induce hypercholesterolemia and atherosclerosis, while continuing the treatment with 2-HOBA or water alone^58, 59, 60 Based on the average weight and daily consumption of water per mouse the estimated daily dosage with 1 g/L of 2-HOBA is 200 mg/Kg. […] Eight week old, male Ldlr^−/− mice were fed a western diet for 16 weeks and were continuously treated with water containing either 2-HOBA or 4-HOBA. Urine samples were collected using metabolic cages (2 mice in one cage) during 18 h after oral gavage with either 2-HOBA or 4-HOBA (5 mg each mouse).
# The scavenger-MDA adducts were extracted, (1) from homogenate of tissue (equivalent of 30 mg) or (2) from cells (1 ml), three times with 500 μl of ethyl acetate. The extract was dried down, resuspended in 100 μl of ACN-water (1:1, v/v with 0.1% formic acid), vortexed, and filtered through a 0.22 μm spin X column. The reactions were analyzed by LC-EST/MS/MS using the column a Phenomenex Kinetex column at a flow rate of 0.1 ml/min. The gradient consisted of Solvent A, water with 0.2% formic acid and solvent B, acetonitrile with 0.2% formic acid. The gradient was as follows: 0-2 min 99.9% A, 2-9 min 99.9-0.1% A, 9-12 min 99.9% B. The mass spectrometer was operated in the positive ion mode, and the spray voltage was maintained at 5,000 V. Nitrogen was used for the sheath gas and auxiliary gas at pressures of 30 and 5 arbitrary units, respectively. The optimized skimmer offset was set at 10, capillary temperature was 300° C., and the tube lens voltage was specific for each compound. SRM of specific transition ions for the precursor ions at m/z 178→107 (propenal-HOBA adduct).
# aortic endothelial cells = test: H2O2-induced apoptosis of endothelial cells (Annexin V); assay type: cell-based, mouse; details: 250 μM H2O2, 24 h, 500 μM compound; compared to vehicle or 4-HOBA
# Procedure: (6A and 6B) Mouse aortic endothelial cells (6A) or primary macrophages (6B) were incubated for 24 h with 250 μM H2O2 alone or with either 4-HOBA or 2-HOBA (500 μM). Apoptotic cells were then detected by Annexin V staining and flow cytometry. (6C to 6H) The mRNA levels of IL-1β, IL-6, and TNF-α were analyzed by real time PCR in the peritoneal macrophages incubated for 24 h with either oxidized LDL (6C-6E) or 250 μM H2O2 (6F-6H) alone or with either 4-HOBA or 2-HOBA (500 μM). (6A to 6H) Data are presented as mean±SEM from three independent experiments, ***p<0.001, One-way ANOVA with Bonferroni's post hoc test.
# Peritoneal macrophages were isolated from mice 72 hours post injection of 3% thioglycollate and maintained in DMEM plus 10% fetal bovine serum (FBS, Gibco) as previously described^30. Human aortic endothelial cells (HAECs) were obtained from Lonza and maintained in endothelial cell basal medium-2 plus 1% FBS and essential growth factors (Lonza).
# Cell apoptosis was induced as indicated and detected by fluorescent labeled Annexin V staining and quantitated by either Flow Cytometry (BD 5 LSRII) or counting Annexin V positive cells in images captured under a fluorescent microscope. The apoptotic cells in atherosclerotic lesions were measured by TUNEL staining of cross-sections of atherosclerotic proximal aortas as previously described^30. […]
# [1] = 16 h post oral gavage, Ldlr−/− mice
structure (smiles),measurement,setting,value
"NCc1ccccc1O [2-HOBA, 2-hydroxybenzylamine]","propenal-HOBA adducts in kidney, 2-HOBA versus 4-HOBA",MDA; [1],5 fold
same,"propenal-HOBA adducts in liver, 2-HOBA versus 4-HOBA",MDA; [1],3 fold
same,"propenal-HOBA adducts in spleen, 2-HOBA versus 4-HOBA",MDA; [1],11 fold
same,formation of MDA-HOBA adducts in vivo,"MDA; Ldlr−/− mice on WD, oral gavage",abundantly formed; also recorded: more readily formed
same,MDA-2-HOBA versus MDA-4-HOBA (propenal-HOBA) adducts in urine,"MDA; urine collected during 16 h after oral gavage (5 mg), Ldlr−/− mice on western diet 16 weeks",19 fold
same,"number of apoptotic cells, endothelial cell cultures",aortic endothelial cells,markedly decreased
